Experimental data published in US20070196885A1, “Method of determining carbonic anhydrase i activity” (YAMASA CORPORATION, priority 2004, published 2007).

Legend:
Type in all cases: biochemical
human CAII [1] = target: T1, human CAII (Homo sapiens, UniProt P00918); assay: Iodide-inhibited hydrolase activity, o-nitrophenyl acetate (Example 9); conditions: 5-μg/mL human CAII solution; 9 mM o-nitrophenyl acetate solution; 300 mM potassium iodide solution; pH 8, room temperature, five minutes
Procedure: (§1) o-Nitrophenyl acetate was used as a substrate having higher reactivity with CAI than with CAII, and in combination, an iodide ion (I^−) was used as a CA inhibitor inhibiting CAI more potently than CAII.
(§2) • (1) By use of purified water, a 25-μg/mL human CAI solution and a 5-μg/mL human CAII solution were prepared. • (2) A 300 mM potassium iodide solution was prepared by use of a 30 mM dimethyl malonate buffer (pH 8). • (3) By use of purified water, a 9 mM o-nitrophenyl acetate solution was prepared. Before dissolution in water, the substrate had been dissolved in advance in acetone. […] Absorbance of the mixture was measured at 405 nm before and after reaction, and change in absorbance (ΔA) was calculated.
(§3) In order to prepare a sample reference and an inhibitor reference, only purified water and 30 mM dimethyl malonate buffer were used as reference solutions (1) and (2), respectively. Each of the references was allowed to react in the same manner as employed above, and absorbance of the mixture was measured, whereby change in absorbance of the reference was determined. […]

human CAI [2] = target: T2, human CAI (Homo sapiens, UniProt P00915); assay: as above; conditions: 25-μg/mL human CAI solution; 9 mM o-nitrophenyl acetate solution; 300 mM potassium iodide solution; pH 8, room temperature, five minutes
T2 sequence (P00915 whole entry): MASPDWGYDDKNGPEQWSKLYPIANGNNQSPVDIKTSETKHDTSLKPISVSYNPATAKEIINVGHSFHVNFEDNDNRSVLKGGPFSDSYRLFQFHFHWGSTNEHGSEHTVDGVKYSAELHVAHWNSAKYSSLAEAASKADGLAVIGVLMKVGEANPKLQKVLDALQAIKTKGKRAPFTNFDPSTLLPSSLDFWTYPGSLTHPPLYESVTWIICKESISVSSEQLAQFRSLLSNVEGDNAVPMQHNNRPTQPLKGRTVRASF
Procedure: as §1, §2, §3

human CAII [3] = target: T1, human CAII; assay: Hydrolase activity with AEBSF and formaldehyde (Example 3); conditions: 5-μg/mL human CAII solution; 9 mM substrate solution; 0.1 mM AEBSF and 50 mM formaldehyde; pH 8, room temperature, five minutes
Procedure: (§4) o-Nitrophenyl acetate was employed as a substrate having higher reactivity with CAI than with CAII. In addition, 4-(2-aminoethyl)benzenesulfony fluoride (AEBSF) serving as an inhibitor inhibiting a hydrolase other than CA, and formaldehyde serving as an enhancer of the inhibitor were employed.
as §2, with “A” for “A 300 mM potassium iodide solution was prepared by use of a”, “(pH: 8) including 0.1 mM AEBSF, and 50 mM formaldehyde were provided.” for “(pH 8).”
(§5) In order to prepare a sample reference, only purified water was used as solution (1). The reference was allowed to react in the same manner as above, and absorbance of the mixture was measured at 405 nm before and after reaction, whereby change in absorbance of the reference was determined. The change in absorbance intrinsic to CA was calculated by the following equation:
(§6) <Calculation> Change in CA-intrinsic absorbance=ΔA1−ΔA3; wherein
(§7) ΔA1 represents change in absorbance of a sample consisting of solution (1), solution (2), and solution (3), and […]

human CAI [4] = target: T2, human CAI; assay: as above; conditions: 25-μg/mL human CAI solution; 9 mM substrate solution; 0.1 mM AEBSF and 50 mM formaldehyde; pH 8, room temperature, five minutes
Procedure: as §4
as §2, with “A” for “A 300 mM potassium iodide solution was prepared by use of a”, “(pH: 8) including 0.1 mM AEBSF, and 50 mM formaldehyde were provided.” for “(pH 8).”
as §5, §6, §7

human CAII [5] = target: T1, human CAII; assay: Hydrolase activity, o-nitrophenyl acetate substrate, no inhibitor (Example 1); conditions: 5-μg/mL human CAII solution, 9 mM substrate solution, pH 8, room temperature, five minutes
Procedure: (§8) o-Nitrophenyl acetate was employed as a substrate having higher reactivity with CAI than with CAII, and no inhibitor was used.
(§9) • (1) By use of purified water, a 25-μg/mL human CAI solution and a 5-μg/mL human CAII solution were prepared. • (2) A 30 mM dimethyl malonate buffer (pH: 8) was provided. • (3) By use of purified water, a 9 mM o-nitrophenyl acetate solution was prepared. Before dissolution in water, the substrate had been dissolved in advance in acetone. […] Specifically, solutions of (1), (2), and (3) (each 50 μL) were mixed, and the mixture was allowed to react at room temperature for five minutes. Absorbance of the mixture was measured at 405 nm before and after reaction, and change in absorbance (ΔA) was calculated.
as §5, §6
(§10) ΔA1 represents change in absorbance of a sample consisting of solutions (1), (2), and (3), and
(§11) ΔA3 represents change in absorbance of a sample consisting of reference solution (1) and solutions (2) and (3).

human CAI [6] = target: T2, human CAI; assay: as above; conditions: 25-μg/mL human CAI solution, 9 mM substrate solution, pH 8, room temperature, five minutes
Procedure: as §8, §9, §5, §6, §10, §11

human CAII [7] = target: T1, human CAII; assay: Acetazolamide-inhibited hydrolase activity (Example 5); conditions: 5-μg/mL human CAII solution, 3 mM acetazolamide solution, pH 8, room temperature, five minutes
Description: (§12) o-Nitrophenyl acetate was employed as a substrate having higher reactivity with CAI than with CAII. As an inhibitor, acetazolamide, which inhibits both CAI and CAII, was used in combination. A reference substrate was produced from p-nitrophenyl acetate—a substrate having low specificity to CAI (reactive with both CAI and CAII)—and the above acetazolamide serving as a CA inhibitor in combination.
(§13) • (1) By use of purified water, a 25-μg/mL human CAI solution and a 5-μg/mL human CAII solution were prepared. • (2) A 3 mM acetazolamide solution was prepared by use of a 30 mM dimethyl malonate buffer (pH 8). Before dissolution in the buffer, acetazolamide had been dissolved in advance in dimethyl sulfoxide (DMSO). Thus, the solution has a DMSO content of 0.15% (v/v). • (3) By use of purified water, a 6 mM o-nitrophenyl acetate solution and a 3 mM p-nitrophenyl acetate solution were prepared. Before dissolution in water, each substrate had been dissolved in advance in acetone. […] Specifically, solutions of (1), (2), and (3) (each 50 μL) were mixed, and the mixture was allowed to react at room temperature for five minutes. Absorbance of the mixture was measured at 405 nm before and after reaction, and change in absorbance (ΔA) was calculated.
(§14) In order to prepare a sample reference and an inhibitor reference, only purified water and 0.15% (v/v) DMSO-containing 30 mM dimethyl malonate buffer were used as reference solutions (1) and (2), respectively. Each of the references was allowed to react in the same manner as above, and absorbance of the mixture was measured, whereby change in absorbance of the reference was determined.
(§15) <Calculation> Change in CA-intrinsic absorbance=[ΔA1−ΔA3]−[ΔA2−ΔA4]; wherein • ΔA1 represents change in absorbance of a sample consisting of solution (1), reference solution (2), and solution (3); • ΔA2 represents change in absorbance of a sample consisting of solutions (1), (2), and (3); • ΔA3 represents change in absorbance of a sample consisting of reference solutions (1) and (2), and solution (3); and • ΔA4 represents change in absorbance of a sample consisting of reference solution (1) and solutions (2) and (3). <Results>

human CAI [8] = target: T2, human CAI; assay: as above; conditions: for Absorbance change (CA-intrinsic, inhibited by acetazolamide, 405 nm): 25-μg/mL human CAI solution, 3 mM acetazolamide solution, pH 8, room temperature, five minutes; for reactivity of substrate with CAI relative to reactivity with CAII: used in combination with acetazolamide (Example 5, Table 3)
Description: as §12, §13, §14, §15

human CAII [9] = target: T1, human CAII; assay: Iodide-inhibited hydrolase activity, p-nitrophenyl acetate (Example 7); conditions: 5-μg/mL human CAII solution; 3 mM p-nitrophenyl acetate solution; 3 mM potassium iodide solution; pH 8, room temperature, five minutes
Procedure: (§16) p-Nitrophenyl acetate serving as a substrate reacting with both CAI and CAII and an iodide (I^−) serving as a CA inhibitor inhibiting CAI more potently than CAII were employed in combination.
as §9, with “(2) A 3 mM potassium iodide solution was prepared by use of a 30 mM” for “(2) A 30 mM”, “malonate buffer (pH 8). • (3)” for “malonate buffer (pH: 8) was provided. • (3)”, “water, a 3 mM p-nitrophenyl” for “water, a 9 mM o-nitrophenyl”, “3 mM p-nitrophenyl acetate solution” for “9 mM o-nitrophenyl acetate solution”
as §3

human CAI [10] = target: T2, human CAI; assay: as above; conditions: 25-μg/mL human CAI solution; 3 mM p-nitrophenyl acetate solution; 3 mM potassium iodide solution; pH 8, room temperature, five minutes
Procedure: as §16
as §9, with “(2) A 3 mM potassium iodide solution was prepared by use of a 30 mM” for “(2) A 30 mM”, “malonate buffer (pH 8). • (3)” for “malonate buffer (pH: 8) was provided. • (3)”, “water, a 3 mM p-nitrophenyl” for “water, a 9 mM o-nitrophenyl”, “3 mM p-nitrophenyl acetate solution” for “9 mM o-nitrophenyl acetate solution”
as §3

[11] = 6 mM o-nitrophenyl acetate solution
[12] = 3 mM p-nitrophenyl acetate solution

SMILES: CC(=O)Oc1ccccc1[N+](=O)[O-] [o-Nitrophenyl acetate, o-nitrophenyl acetate]
- Absorbance change (CA-intrinsic, inhibited by iodide, 405 nm) (human CAII [1]): 0.009
- Absorbance change (CA-intrinsic, inhibited by iodide, 405 nm) (human CAI [2]): 0.504
- Absorbance change (CA-intrinsic, 405 nm) (human CAII [3]): 0.008
- Absorbance change (CA-intrinsic, 405 nm) (human CAI [4]): 0.329
- Absorbance change (CA-intrinsic, 405 nm) (human CAII [5]): 0.011
- Absorbance change (CA-intrinsic, 405 nm) (human CAI [6]): 0.511
- Absorbance change (CA-intrinsic, inhibited by acetazolamide, 405 nm) (human CAII [7]; [11]): 0.004
- Absorbance change (CA-intrinsic, inhibited by acetazolamide, 405 nm) (human CAI [8]; [11]): 0.285
- reactivity of substrate with CAI relative to reactivity with CAII (human CAI [8]): higher than twice the reactivity with CAII

SMILES: CC(=O)Oc1ccc([N+](=O)[O-])cc1 [p-Nitrophenyl acetate, p-nitrophenyl acetate]
- Absorbance change (CA-intrinsic, inhibited by iodide, 405 nm) (human CAII [9]): 0.005
- Absorbance change (CA-intrinsic, inhibited by iodide, 405 nm) (human CAI [10]): 0.052
- Absorbance change (CA-intrinsic, inhibited by acetazolamide, 405 nm) (human CAII [7]; [12]): 0.162
- Absorbance change (CA-intrinsic, inhibited by acetazolamide, 405 nm) (human CAI [8]; [12]): 0.283
- reactivity of substrate with CAI relative to reactivity with CAII (human CAI [8]): lower than twice the reactivity with CAII
